Measurements from the NIST ThermoML archive (doi:10.1016/j.tca.2014.02.019).

Assay: xn = mol fraction of the nth substance listed
Conditions: 101 kPa, Liquid; for viscosity: Falling or rolling sphere viscometry; for mass density: Vibrating tube method

CCOS(=O)(=O)[O-].CC[N+]1(C)CCOCC1 [4-ethyl-4-methylmorpholinium ethyl sulfate] + O
Conditions	mass density [kg/m3]	viscosity [mPa·s]
298.15 K, x1 = 0.1255	1160.26	7.655
298.15 K, x1 = 0.2214	1196.87	20.62
298.15 K, x1 = 0.3165	1215.39	46.5
298.15 K, x1 = 0.4406	1229.15	115.6
298.15 K, x1 = 0.6319	1240.92	529.2
298.15 K, x1 = 0.7239	1244.69	686.5
298.15 K, x1 = 0.807	1247.34	2262
298.15 K, x1 = 1	1252.26	–
303.15 K, x1 = 0.1255	1157.12	6.513
303.15 K, x1 = 0.2214	1193.61	16.92
303.15 K, x1 = 0.3165	1212.17	36.79
303.15 K, x1 = 0.4406	1226.03	93.81
303.15 K, x1 = 0.6319	1237.71	400.9
303.15 K, x1 = 0.7239	1241.43	533.1
303.15 K, x1 = 0.807	1244.19	1630
303.15 K, x1 = 1	1249.05	–
308.15 K, x1 = 0.1255	1153.95	5.589
308.15 K, x1 = 0.2214	1190.35	14.11
308.15 K, x1 = 0.3165	1208.94	29.62
308.15 K, x1 = 0.4406	1222.87	72.42
308.15 K, x1 = 0.6319	1234.48	309.1
308.15 K, x1 = 0.7239	1238.23	408.3
308.15 K, x1 = 0.807	1241	1088
308.15 K, x1 = 1	1245.86	–
313.15 K, x1 = 0.1255	1150.75	4.817
313.15 K, x1 = 0.2214	1187.08	11.93
313.15 K, x1 = 0.3165	1205.7	24.24
313.15 K, x1 = 0.4406	1219.69	57.41
313.15 K, x1 = 0.6319	1231.24	226.8
313.15 K, x1 = 0.7239	1235.04	308.8
313.15 K, x1 = 0.807	1237.81	746.9
313.15 K, x1 = 1	1242.67	2426
318.15 K, x1 = 0.1255	1147.52	4.176
318.15 K, x1 = 0.2214	1183.79	10.2
318.15 K, x1 = 0.3165	1202.45	20.16
318.15 K, x1 = 0.4406	1216.5	46.03
318.15 K, x1 = 0.6319	1228.05	170.3
318.15 K, x1 = 0.7239	1231.83	240
318.15 K, x1 = 0.807	1234.63	526.7
318.15 K, x1 = 1	1239.51	1677
323.15 K, x1 = 0.1255	–	3.673
